Results published in US20050289668A1, “Plants with increased levels of one or more amino acids” (priority 2003, published 2005).
Residue numbers refer to the chain shown, from its start. pIC50: −log10 of the molar value.

Tests used:
[1] = biological target: T1, E. coli threonine deaminase (ilvA) variant L481Y, SEQ ID NO: 5 (Escherichia coli, UniProt P04968, A120R/A140R/G195C/G334V/L481Y/V121L); test: Threonine deaminase steady state kinetics, L481Y; format: biochemical
T1 construct: made in house; host or cells: E. coli (pSE380, crude extract)
T1 sequence (P04968 1-514 A120R/V121L/A140R/G195C/G334V/L481Y): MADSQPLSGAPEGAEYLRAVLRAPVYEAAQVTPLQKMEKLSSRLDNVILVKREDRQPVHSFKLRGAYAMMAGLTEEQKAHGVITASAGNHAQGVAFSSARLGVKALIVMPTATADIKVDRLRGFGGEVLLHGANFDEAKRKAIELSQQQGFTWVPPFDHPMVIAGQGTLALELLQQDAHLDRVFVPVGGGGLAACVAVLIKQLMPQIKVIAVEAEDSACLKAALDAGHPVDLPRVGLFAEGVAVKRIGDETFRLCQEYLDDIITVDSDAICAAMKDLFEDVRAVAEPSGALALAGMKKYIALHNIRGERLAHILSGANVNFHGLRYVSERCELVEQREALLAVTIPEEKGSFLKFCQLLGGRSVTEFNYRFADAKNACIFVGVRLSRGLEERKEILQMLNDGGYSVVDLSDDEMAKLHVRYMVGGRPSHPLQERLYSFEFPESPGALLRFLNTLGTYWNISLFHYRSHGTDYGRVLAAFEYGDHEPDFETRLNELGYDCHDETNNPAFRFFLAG
Description: Before conducting further transformation experiments using the isolated ilvA alleles in transgenic plants, each allele was over-expressed in E. coli to determine its kinetic parameters. Kinetics data on threonine deaminases containing various mutations, and a comparison to data available for threonine deaminases from Arabidopsis, are provided in Table 4. The E. coli ilvA481 variants were subcloned into pSE380 (Invitrogen, Carlsbad, Calif.) and expression was induced with 0.2 mM IPTG at 37° C. for 3 hours. Expression of the E. coli alleles was high and fairly consistent as visualized by SDS-PAGE.
The effects of amino acid substitutions at Leu481 in ilvA were assessed by steady state kinetic analysis in the presence and absence of L-isoleucine. Threonine deaminase polypeptides for use in in vitro kinetics studies were extracted from E. coli cells in assay buffer containing 50 mM potassium phosphate (pH7.5), 1 mM dithiothreitol (DTT), and 0.5 mM ethylenediamine-tetraacetate. A continuous assay method was employed to monitor the formation of α-ketobutyrate directly at 230 nm (ε230 (pH7.5)=540 M^−1cm^−1 whereas threonine absorption was negligible (˜1%)). The assay was initiated by adding 20 μl of crude extract diluted 1:20 v/v to the assay vessel containing L-threonine (between 2.5 mM and 50 mM) in a final volume of 1 mL. For L-isoleucine inhibition, L-isoleucine was added between 0 mM and 20 mM. The kinetic parameters were determined by fitting the data points to the equations using GraFit 4.0 software (Erithacus Software, Surrey, UK). For comparison, the kcat values of L481 alleles were normalized to the kcat value for the wild type IlvA enzyme. Enzymes represented in FIG. 7 are: wild type E. coli threonine deaminase (circles), L481Y TD enzyme (diamonds), L481F TD enzyme (triangles), and the L481T TD enzyme (squares). Table 4 also summarizes the kinetic parameters of the variant threonine deaminase enzymes produced by the various E. coli ilvA alleles.

[2] = biological target: T2, E. coli threonine deaminase (ilvA) variant L447F (ilvA219), SEQ ID NO: 3 (Escherichia coli, UniProt P04968, A120R/A140R/G195C/G334V/L447F/V121L); test: Threonine deaminase steady state kinetics, L447F (ilvA219); format: biochemical
T2 construct: made in house; host or cells: E. coli (crude extract)
T2 sequence (P04968 1-514 A120R/V121L/A140R/G195C/G334V/L447F): T1 sequence (P04968 1-514 A120R/V121L/A140R/G195C/G334V/L481Y) with L447F, Y481L

SMILES	pIC50 [1]	pIC50 [2]	Hill coefficient (n), substrate binding ([1]; L481Y, pMON25868, degree of cooperativity)	Km ([1]; read-out: Km^Thr, L481Y, pMON25868, pH 7.5, L-threonine 2.5-50 mM)	Hill coefficient (n), substrate binding ([2]; L447F, pMON25859, negative cooperativity)	Km ([2]; read-out: Km^Thr, L447F, pMON25859, pH 7.5, L-threonine 2.5-50 mM)
CC[C@H](C)[C@H](N)C(=O)O [L-isoleucine]	2.80	< 1.70	–	–	–	–
C[C@@H](O)[C@H](N)C(=O)O [L-threonine]	–	–	1.1	2000 µM	0.5	1700 µM
